Test results published in patent US20160068902A1, “SEQUENCING NUCLEIC ACIDS BY ENZYME ACTIVATION” (CAERUS MOLECULAR DIAGNOSTICS, priority 2013, published 2016).

Tested on: maltose binding protein/lactamase enzyme (switch enzyme)
Test: Lactamase switch enzyme activity monitored with chromogenic substrate nitrocefin
Assay type: biochemical
Conditions: for activation of the switch protein after dephosphorylation: dephosphorylated with shrimp alkaline phosphatase; for activation of the switch protein after dephosphorylation / activation of the switch protein: FIG. 4E; for activation of the switch protein: without dephosphorylation
Description: A maltose with the 1′ hydroxyl attached to the terminal phosphate of a dNTP should not bind effectively to the switch and so should not activate the maltose binding protein/lactamase enzyme^12. The conjugated maltose/dNTP can be used to detect incorporation of dNTP during a cycle of sequencing by synthesis: the enzyme is only activated after incorporation of a dNTP released phospho-maltose which is then be dephosphorylated to yield the maltose activator. […] Maltose monohydrate (1.44 g) was dissolved in 1 ml of water titrated to pH 12.5 by addition of NaOH and heated to 80° C. Trisodium trimetaphosphate (0.31 g) was added and the mixture reacted at room temperature for 25 hours. The maltose-triphosphate product was purified by anion exchange chromatography on a Dowex 1-X2 resin and eluted with 300 mM KCl.
The switch protein was expressed and purified as previously described^21 and enzyme activity was monitored using the chromogenic substrate nitrocefin. […] Addition of maltose increased the enzyme activity more than 210-fold.

Row | Molecule | activation of the switch protein after dephosphorylation | activation of the switch protein after dephosphorylation (listed as Maltose triphosphate) | activation of the switch protein | increase of enzyme activity on addition of maltose (10 nM switch enzyme, nitrocefin hydrolysis, FIG. 4A) | Lactamase switch hydrolyses nitrocefin faster after maltose addition (FIG. 4(A) legend) [times]
1 | maltose triphosphate | activation levels similar to that of maltose | significant activation of the lactamase switch only upon dephosphorylation | no appreciable activation | – | –
2 | OC[C@H]1O[C@H](O[C@H]2[C@H](O)[C@@H](O)C(O)O[C@@H]2CO)[C@H](O)[C@@H](O)[C@@H]1O (mixture of isomers) [maltose] | – | – | activates the protein | more than 210 fold | 210
